The target in assay [1] is T1, Angiotensin II receptor (AT-1) type-1 (Rattus norvegicus, UniProt P29089+P25095).
T1 sequence (P29089 whole entry): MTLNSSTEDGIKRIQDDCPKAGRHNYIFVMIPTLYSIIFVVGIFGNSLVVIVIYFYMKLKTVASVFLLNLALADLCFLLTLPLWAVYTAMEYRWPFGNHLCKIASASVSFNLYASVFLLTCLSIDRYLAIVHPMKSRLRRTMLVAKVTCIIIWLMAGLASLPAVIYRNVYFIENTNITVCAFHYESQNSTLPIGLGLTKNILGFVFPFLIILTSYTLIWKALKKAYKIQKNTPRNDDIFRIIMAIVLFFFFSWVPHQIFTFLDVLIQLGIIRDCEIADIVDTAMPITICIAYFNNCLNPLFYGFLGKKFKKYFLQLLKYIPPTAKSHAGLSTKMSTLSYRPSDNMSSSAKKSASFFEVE
T1 sequence (P25095 whole entry): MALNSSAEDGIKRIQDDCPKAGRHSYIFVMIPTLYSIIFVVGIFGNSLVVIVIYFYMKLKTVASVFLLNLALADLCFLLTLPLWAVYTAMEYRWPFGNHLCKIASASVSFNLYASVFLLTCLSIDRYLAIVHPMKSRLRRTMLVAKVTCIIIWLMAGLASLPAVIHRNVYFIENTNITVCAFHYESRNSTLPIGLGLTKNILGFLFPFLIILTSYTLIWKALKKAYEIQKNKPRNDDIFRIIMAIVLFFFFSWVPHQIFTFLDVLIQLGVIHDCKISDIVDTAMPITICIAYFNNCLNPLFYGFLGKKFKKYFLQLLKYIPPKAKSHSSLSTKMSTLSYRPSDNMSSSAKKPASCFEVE
The assay is described as follows: Inhibitory concentration was evaluated by measuring displacement of [3H]AII from rat liver Angiotensin II receptor, type 1. (Displacement assays read how much labelled ligand stays bound in the presence of the test substance.)

Assay [2] relates to Rattus norvegicus. Kind of assay: (§1) In vivo inhibitory percentage of pressor response induced by exogenous submaximal dose of angiotensin -II […] administered iv to pithed rats. It counts as functional.
In assay [3] the test system is Rattus norvegicus. The description is as §1. In kind it is functional. This is another data set of the same source.
Assay [4] is filed under the species Oryctolagus cuniculus. Kind of assay: Antagonism against A-2 induced contraction of aortic rings from rabbit. Conditions: Aorta, read-out: pA2 (converted). It counts as functional.
Assay [5] is filed under the species Oryctolagus cuniculus. The assay is described as follows: Antagonism against A-2 induced contraction of aortic rings of rabbit. The settings on record: read-out: pA2 (converted).

The IC50 is the concentration at which inhibition is half-maximal. Read a low IC50 as inhibition by little substance. As usually defined, the Inhibition is the percentage by which the read-out fell short of the control. A lower Inhibition goes with a response near the control. In assay [1], `CCc1nc2c(C)cc(C)nc2n1Cc1ccc([C@H](c2ccccc2)[C@H](CC)C(=O)O)cc1` yielded an IC50 of 50 nM. Moreover, the values for the Inhibition in the assay with Rattus norvegicus [2] and in the assay on Rattus norvegicus [3] were 86.1% and 73.3%, respectively. In addition, in the assay listed under Oryctolagus cuniculus [4], the Kb was 3.89 nM.
In assay [1], `CCc1nc2c(C)cc(C)nc2n1Cc1ccc([C@H](c2ccccc2)[C@H](C)C(=O)O)cc1` (stereo in doubt; 36g) displayed an IC50 of 69 nM. The Kb in the assay listed under Oryctolagus cuniculus [5] is 2.04 nM. Besides, the results for the Inhibition in the assay with Rattus norvegicus [2] and in the assay with Rattus norvegicus [3] were 84.8% and 68.5%, respectively.

The values are drawn from ChEMBL document CHEMBL1129327, “Diphenylpropionic acids as new AT1 selective angiotensin II antagonists” (J Med Chem, 1996).
